pIC50: −log10 of the molar value. Values joined by “and” are separate entries in the source; they are usually repeats but may differ in a detail not shown here. Equal values may be shown once.
Columns and labels:
[1] = test system: Sprague-Dawley rats treated with DMCM; test: Social interaction test, DMCM-induced anxiety; assay type: in vivo, rat; details: 3.75, 7.5 or 15 mg/kg i.p. 15 min before 0.5 mg/kg DMCM
From the text: (§1) Experienced observers blinded to the experimental conditions carried out the social interaction test in a square open field (60 cm by 60 cm, with 16 15×15 cm squares marked out on the floor). Pairs of rats receiving the same treatment were placed in the arena and the onset of social interactions recorded. This procedure has been validated by previous studies (Overstreet et al. (2002); Overstreet et al. (2003)). Rats were unfamiliar with the open field and lighting conditions were low in order to generate an intermediate level of anxiety-related behavior. Rat pairs matched according to weight and treatment were placed simultaneously in the open field. During the 5-min session, line crosses (by two forepaws) and time spent in social interaction (grooming, sniffing, following) were scored individually for each rat (Kampov-Polevoy et al., 2000; Overstreet et al., 2002, 2003).
(§2) Fifteen min later the rats received a second injection of 0.5 mg/kg DMCM (methyl 6,7-demethoxy-4-ethyl-β-carboline-3-carboxylate) or vehicle (acidified saline). The rats were placed in the open field arena 15 min after the second injection for recording social interaction and locomotor activity for 5-min. Approximately one week later the rats were treated with Compound A (3.75, 7.5 or 15 mg/kg). The 5-HT2C agonist mCPP (m-chlorophenylpiperazine; 0.5 mg/kg) or vehicle (saline) was given 15 min later. After another 15 min period, the social interaction and locomotor activity for five min were recorded.

Rats [2] = test: Example 32 social interaction, line crosses and center entries; assay type: in vivo, rat; design: Social Interaction, Mean / Social Interaction, individual rat: unit not given here; details: 15 mg/kg
From the text: (§3) One noninjected rat was included in the control group for water intake.

[3] = test system: SD rats subjected to restraint stress; test: Social interaction test, restraint-induced stress; assay type: in vivo, rat; details: 15 mg/kg pretreatment
From the text: as §1
Restraint-Induced Stress Study: SD rats were injected with either CMC vehicle or 15 mg/kg Compound A in vehicle and subjected to restraint stress in decapicones for one hour. After a 30-min recovery period, the rats were exposed to the open field arena for […] and social interaction and line crosses recorded.

[4] = test system: alcohol-withdrawn Sprague-Dawley (SD) rats; test: Social interaction test, repeated alcohol withdrawal-induced anxiety; assay type: in vivo, rat
From the text: as §1
Ethanol Exposure Studies: Individually housed Sprague-Dawley (SD) rats were given a complete nutritious liquid diet (Knapp et al., 2004; Overstreet et al., 2002) after 5 days to adapt to local conditions. Three days later, most of rats received a 4.5% ethanol liquid diet and others remained on the control liquid diet without ethanol. Rats consumed ethanol for 15 days in three cycles of 5 days each separated by a 2-day withdrawal period between cycles. This design enabled us to test two treatment regimens with Compound A. Acute effects of Compound A (3.75 and 15 mg/kg) were determined 4.5 hr after the 3rd ethanol cycle to allow alcohol washout. The social interaction test was carried out 30 min later.

[5] = test system: Sprague-Dawley rats treated with mCPP; test: Social interaction test, mCPP-induced anxiety; assay type: in vivo, rat; details: 3.75, 7.5 or 15 mg/kg 15 min before 0.5 mg/kg mCPP
From the text: as §1, §2

Rats [6] = test: Example 32 alcohol, food and water intake; assay type: in vivo, rat; details: 15 mg/kg
From the text: as §3

[7] = test system: congenitally anxious Fawn-Hooded (FH) rats; test: Social interaction test, Fawn Hooded (FH) rat model of anxiety; assay type: in vivo; details: 15 mg/kg i.p., 30 min after injection
From the text: as §1

hMAO-A = target: T1, hMAO-A (Homo sapiens, UniProt P21397); test: MAO-A inhibition assay (Amplex Red, horseradish peroxidase-coupled); assay type: biochemical
T1 construct: purchased Sigma M7316
T1 sequence (P21397 1-527): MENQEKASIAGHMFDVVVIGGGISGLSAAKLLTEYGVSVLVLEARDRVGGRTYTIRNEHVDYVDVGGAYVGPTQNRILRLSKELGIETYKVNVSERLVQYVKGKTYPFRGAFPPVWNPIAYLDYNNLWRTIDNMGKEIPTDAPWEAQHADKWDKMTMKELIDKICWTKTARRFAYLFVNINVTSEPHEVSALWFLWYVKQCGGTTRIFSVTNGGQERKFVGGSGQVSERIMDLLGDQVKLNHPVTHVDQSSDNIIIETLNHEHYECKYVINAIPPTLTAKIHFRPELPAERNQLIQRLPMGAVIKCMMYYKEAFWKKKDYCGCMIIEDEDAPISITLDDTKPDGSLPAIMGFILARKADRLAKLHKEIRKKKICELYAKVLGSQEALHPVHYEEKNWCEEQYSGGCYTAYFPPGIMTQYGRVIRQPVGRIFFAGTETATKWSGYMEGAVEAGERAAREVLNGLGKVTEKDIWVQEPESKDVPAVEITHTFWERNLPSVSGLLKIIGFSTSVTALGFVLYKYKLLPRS
Protocol: MAO-A (Sigma M7316) and MAO-B (Sigma M7441) inhibition assays were conducted in 96-well micro-plates according to the method described by Zhou et al. [Analytical Biochemistry 253, 169-174, 1997]. Both assays were performed in potassium phosphate buffer (0.1 M, pH 7.5) containing 0.5 mM tyramine (Sigma T2879), 0.12 mM N-acetyl-3,7-dihydrophenoxazine (Amplex Red, Invitrogen A12222), 1.2 unit/ml horseradish peroxidase (Sigma P2088), 0.6 unit/ml MAO-A or 2.5 unit/ml MAO-B, and various concentrations of test compounds (0.1 nM to 10 uM). Reactions were initiated by the addition of a pre-mixed solution of tyramine, horseradish peroxidase and Amplex Red, and were allowed to proceed at 37° C. for 30 min. Enzyme activities were determined by measuring absorbance at 570 nm (SpectralMax Plate reader), absorbance of oxidized Amplex Red generated by this horseradish peroxidase-coupled reaction. Nonspecifically formed products were determined in the presence of 2 and 10 µM clorgyline and deprenyl for MAO-A and MAO-B, respectively. IC50 values were determined by fitting concentration-inhibition data to sigmoidal dose-response curves with two-floating parameters: IC50 and Hill coefficient.

[8] = target: T2, hALDH2 (recombinant human mitochondria ALDH) (Homo sapiens, UniProt P05091); test: ALDH2 inhibition assay (NADH formation, formaldehyde substrate); assay type: biochemical
T2 sequence (P05091 18-517): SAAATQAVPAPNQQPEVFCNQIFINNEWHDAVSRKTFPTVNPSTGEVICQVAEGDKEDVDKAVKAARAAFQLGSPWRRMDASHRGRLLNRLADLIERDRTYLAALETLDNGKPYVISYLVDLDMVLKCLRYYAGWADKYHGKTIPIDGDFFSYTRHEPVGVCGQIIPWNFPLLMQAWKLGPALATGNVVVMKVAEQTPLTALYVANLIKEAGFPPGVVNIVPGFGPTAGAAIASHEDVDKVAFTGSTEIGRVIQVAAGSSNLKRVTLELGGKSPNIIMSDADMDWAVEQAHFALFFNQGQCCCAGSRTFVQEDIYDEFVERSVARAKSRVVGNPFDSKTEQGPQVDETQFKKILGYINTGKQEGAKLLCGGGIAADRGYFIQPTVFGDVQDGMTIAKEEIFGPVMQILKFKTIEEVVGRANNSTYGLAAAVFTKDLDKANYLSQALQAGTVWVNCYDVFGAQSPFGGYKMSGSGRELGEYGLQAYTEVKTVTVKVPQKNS
Procedure, shortened: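 1 nM enzyme in 50 mM sodium phosphate pH 7.4 with 1.2 mM NAD+ and compound at 0.03–1000 nM; reaction started with 0.15 mM formaldehyde at 25 °C. NADH formation followed by fluorescence (ex 340/em 460 nm). IC50 from sigmoidal fits with floating Hill slope; apparent Ki from Morrison equation if tight binding.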

hMAO-B = target: T3, hMAO-B (Homo sapiens, UniProt P27338); test: MAO-B inhibition assay (Amplex Red, horseradish peroxidase-coupled); assay type: biochemical
T3 construct: purchased Sigma M7441
T3 sequence (P27338 1-520): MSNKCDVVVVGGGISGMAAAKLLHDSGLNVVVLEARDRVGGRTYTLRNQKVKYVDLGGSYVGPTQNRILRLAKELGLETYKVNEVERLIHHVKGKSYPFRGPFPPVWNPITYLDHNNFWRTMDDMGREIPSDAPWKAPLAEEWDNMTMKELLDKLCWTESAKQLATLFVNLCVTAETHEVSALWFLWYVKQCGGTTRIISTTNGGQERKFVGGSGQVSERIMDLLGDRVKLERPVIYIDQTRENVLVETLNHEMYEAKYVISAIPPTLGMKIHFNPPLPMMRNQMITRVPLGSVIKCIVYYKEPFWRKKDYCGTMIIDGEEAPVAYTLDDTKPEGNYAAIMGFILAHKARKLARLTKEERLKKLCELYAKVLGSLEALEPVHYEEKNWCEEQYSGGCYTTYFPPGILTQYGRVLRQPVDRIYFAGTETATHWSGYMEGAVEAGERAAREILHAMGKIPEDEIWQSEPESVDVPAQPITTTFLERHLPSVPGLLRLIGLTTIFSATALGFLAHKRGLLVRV
Procedure, shortened: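 Human MAO-A (0.6 U/ml) or MAO-B (2.5 U/ml) in 0.1 M potassium phosphate pH 7.5 with 0.5 mM tyramine, 0.12 mM Amplex Red and HRP; compounds at 0.1 nM-10 μM, 30 min at 37 °C, absorbance at 570 nm. Background set with clorgyline (MAO-A) or deprenyl (MAO-B); IC50 from sigmoidal fits.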

Syrian golden hamsters = details: compared with daidzin; cited from earlier work
[9] = 30 min before test, listed as Comp. A

In the case of CS(=O)(=O)Nc1ccc(-c2coc3cc(OCc4cccc(C(=O)O)c4)ccc3c2=O)cc1 [Compound A, 3-[(3-{4-[(methylsulfonyl)amino]phenyl}-4-oxochromen-7-yloxy)methyl]benzoic acid], the “anxiogenic effects of DMCM (reduced social interaction)” value [1] was “prevented by Compound A in a dose-dependent manner”, the “reduced locomotor activity caused by DMCM” value [1] was “not affected by Compound A, except at 7.5 mg/kg” and the “Center Entries, Mean” value (Rats [2]; 30 min before test, n=6) was 19.3. For the same compound, the “Line Crosses, Mean” value (Rats [2]; 30 min before test, n=6) was 109, the “Center Entries, individual rat” value (Rats [2]; [9]) was 28 and 25 and 18 and 13 and 26 and 6 and the “Line Crosses, individual rat” value (Rats [2]; [9]) was 135 and 125 and 84 and 113 and 104 and 90. For the same compound, the “Social Interaction, Mean” value (Rats [2]; 30 min before the social interaction, n=6) was 13.3, the “Social Interaction, individual rat” value (Rats [2]; 30 min before the social interaction, listed as Comp. A) was 13 and 16 and 14 (2×) and 11 and 12 and the “activity, in words” value (Rats [2]; vs vehicle) was “not activity”. The “social interaction (anxiolytic effect), in words” value (Rats [2]; vs vehicle) was “increased social interaction”, the “locomotor activity after restraint stress” value [3] was “no significant” and the “social interaction after restraint stress” value ([3]; restraint 60 min, 30-min recovery) was “prevented stress-induced anxiety-like behavior”. The “social interaction behavior, prophylactic treatment” value ([4]; 3.75-15 mg/kg during 1st and 2nd withdrawals, none after 3rd cycle, tested 5 days after last dose) was “increased social interaction behavior prophylactically”, the locomotor activity ([4]; acute treatment after alcohol withdrawal, SD rats) was “No significant differences” and the “time of social interaction after alcohol withdrawal” value ([4]; acute, 3.75 and 15 mg/kg injected 30 min before testing, SD rats) was “increased the time of social interaction”. The “social interaction behavior after alcohol withdrawal” value ([4]; acute, higher doses, SD rats) was “completely normalizing the behavior”, the “locomotor activity (line crosses), prophylactic treatment” value ([4]; compared to vehicle treated rats withdrawn from the alcohol liquid diet) was “barely significant effect” and the “mCPP-induced anxiogenesis (social interaction)” value [5] was “did not prevent mCPP-induced anxiogenesis”. For the same compound, the “food intake, in words” value (Rats [6]) was “did not affect”, the “water intake, in words” value (Rats [6]) was “did not affect” and the “2 hr Alcohol Intake, Mean” value (Rats [6]; 2 hr, n=6) was 0.2. The “2 hr Alcohol Intake, individual rat” value (Rats [6]; 2 hr, listed as Comp. A) was 0 (2×) and 0.38 (3×) and 0.19, the “4 hr Alcohol Intake, Mean” value (Rats [6]; 4 hr, n=6) was 0.7 and the “4 hr Alcohol Intake, individual rat” value (Rats [6]; 4 hr, listed as Comp. A) was 0.88 and 0.4 and 0.76 and 0.95 and 0.38 and 0.57. For the same compound, the “6 hr Alcohol Intake, Mean” value (Rats [6]; 6 hr, n=6) was 1.3, the “6 hr Alcohol Intake, individual rat” value (Rats [6]; 6 hr, listed as Comp. A) was 1.72 and 1.2 and 1.23 and 1.71 and 0.95 and 1 and the “24 hr Alcohol Intake, Mean” value (Rats [6]; 24 hr, n=6) was 4.1. The “24 hr Alcohol Intake, individual rat” value (Rats [6]; 24 hr, listed as Comp. A) was 3.2 and 4 and 4.94 and 5.32 and 3.23 and 3.6, the “alcohol intake, in words” value (Rats [6]; from 2-6 hr) was “reduced alcohol intake” and the “Food Intake, Mean” value (Rats [6]; n=6) was 19.7. The “Food Intake, individual rat” value (Rats [6]; listed as Comp. A) was 19 (2×) and 18 and 21 (2×) and 20, the locomotor line crossing [7] was “did not affect locomotor line crossing” and the “increase in social interaction” value ([7]; vs vehicle) was 2 fold.

Compound CCOC(=O)c1ccc(COc2ccc3c(=O)c(-c4ccc(O)cc4)coc3c2)cc1 [PT-34, ethyl 4-{[3-(4-hydroxyphenyl)-4-oxochromen-7-yloxy]methyl}benzoate] has a pIC50 (hMAO-A) of 4.62, a pIC50 [8] of 6.89 and a pIC50 (hMAO-B) of 5.64.

With N#CCOc1ccc2c(=O)c(-c3ccc(O)cc3)coc2c1 [PT-88, 2-[3-(4-hydroxyphenyl)-4-oxochromen-7-yloxy]ethanenitrile] the pIC50 (hMAO-A) was 5.21, the pIC50 [8] was 7.64 and the inhibition at 10 µM (hMAO-B; at 10 μM, read-out: hMAO-B inhibition (IC50 hMAO-B)) was 35%.

In the case of O=c1c(-c2ccc(O)cc2)coc2cc(O)ccc12 [daidzein], the suppressing ethanol uptake (Syrian golden hamsters) is given as “effective in suppressing ethanol uptake, but with decreased potency”.
